# Source: patent publication US10881656B2, “HIF inhibitors and use thereof” (The General Hospital Corporation, priority 2008, dated 2021)
# How the values were obtained:
# HIF = conditions: published; cited from earlier work
# [1] = system: HIF-2a 5′-UTR Iron-Responsive Element (IRE); assay: Luciferase reporters with HIF-2a 5′-UTR / IRE in 786-O cells; assay type: cell-based, human; conditions: 10 μM, normoxia and hypoxia
# [2] = biological target: T1, IRP2 binding to Ferritin-L IRE (Homo sapiens, UniProt P48200); assay: Electrophoretic mobility shift assay, Ferritin L IRE probe; conditions: 786-O lysates, EMSA
# T1 construct: when expressed in endogenous levels; endogenous in cells; host or cells: 786-O
# T1 sequence (P48200 whole entry): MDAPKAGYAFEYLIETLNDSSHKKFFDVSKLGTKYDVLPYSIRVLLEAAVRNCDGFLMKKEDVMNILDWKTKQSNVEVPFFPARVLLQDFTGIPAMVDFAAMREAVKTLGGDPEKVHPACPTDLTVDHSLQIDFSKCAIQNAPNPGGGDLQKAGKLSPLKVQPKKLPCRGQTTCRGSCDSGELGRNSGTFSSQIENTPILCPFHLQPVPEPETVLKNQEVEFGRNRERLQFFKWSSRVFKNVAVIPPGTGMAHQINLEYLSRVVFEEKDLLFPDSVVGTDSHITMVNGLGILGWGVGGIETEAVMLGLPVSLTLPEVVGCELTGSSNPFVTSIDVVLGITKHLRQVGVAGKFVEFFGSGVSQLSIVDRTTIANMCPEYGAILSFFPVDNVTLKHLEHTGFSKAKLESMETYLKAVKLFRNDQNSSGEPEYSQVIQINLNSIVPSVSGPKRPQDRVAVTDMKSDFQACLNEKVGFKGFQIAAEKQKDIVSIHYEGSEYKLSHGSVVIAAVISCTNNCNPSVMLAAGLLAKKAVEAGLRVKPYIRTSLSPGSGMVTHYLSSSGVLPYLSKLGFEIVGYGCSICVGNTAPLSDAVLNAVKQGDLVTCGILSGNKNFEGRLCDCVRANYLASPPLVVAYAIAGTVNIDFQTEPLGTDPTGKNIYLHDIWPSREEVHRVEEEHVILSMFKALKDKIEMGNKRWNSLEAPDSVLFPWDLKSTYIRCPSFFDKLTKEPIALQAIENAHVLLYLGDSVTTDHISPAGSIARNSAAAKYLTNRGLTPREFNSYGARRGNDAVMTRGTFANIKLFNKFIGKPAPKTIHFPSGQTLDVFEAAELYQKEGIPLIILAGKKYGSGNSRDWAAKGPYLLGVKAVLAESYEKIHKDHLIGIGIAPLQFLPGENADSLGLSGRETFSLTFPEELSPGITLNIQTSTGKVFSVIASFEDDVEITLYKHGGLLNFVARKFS
# Protocol: EMSAs were performed as described previously (Fillebeen et al., 2003). Briefly, 50 μg lysate from 786-O cells treated with medium only, DMSO, or compounds were incubated with 25,000 cpm wild-type or mutant radiolabeled HIF-2a IRE probe for 20 minutes at room temperature before loading onto non-denaturing acrylamide gels. Supershifts were performed identically, save that 0.2 μg control, IRP1 or IRP2 antibodies were also added. Total protein content was estimated by Bradford Assay (BioRad, 500-0006), and even loading for all experiments was confirmed by Western blot for B-Actin.
# Inventors discovered that compound 76 increased the residual amount of IRP1 bound to the HIF-2a IRE in hypoxia, although not to the same extent as that observed in normoxic cells. […] Lastly, to further investigate the involvement of IRP2 in HIF-2a IRE, the inventors compared side by side IRP2 binding to HIF-2a and Ferritin-L IRE in 786-O cells, in conditions of normoxia or hypoxia and after treatment with compound 76 or DFO (FIG. 7E). While IRP2 binding was clearly detected on Ferritin IRE, the inventors were not able to detect measurable IRP2 binding on HIF-2a IRE.
# [3] = system: iron (Fe-(EDHB)3 complex); assay: In vitro iron competition assay; conditions: 0-200 micromolars, absorbance at 500 nm
# Protocol: This assay was performed similarly to that described previously (Wang et al., 2002). Briefly, displacement of iron from ethyl-3,4-dihydroxybenzoate (EDHB) complex was measured as a decrease in absorbance at 500 nm. Ferric iron, prepared as a 5 mM stock solution of FeC13 in 100 mM sodium citrate, was diluted to 25 μM in the presence of 750 μM EDHB. 1 ml aliquots of this solution were then mixed with 0, 25, 50, 100 or 200 micromolars of compounds 40, 41, 76, and 77 as well as EDTA and DFO for controls. […] The self absorbance of compound 41 in a matched solution lacking Fe-(EDHB)3 was subtracted from the A500 value obtained in the presence of the Fe-(EDHB)3 complex.
# The inventors next directly tested whether the compounds bind iron by performing a competition assay in which the displacement of iron from ethyl-3,4-dihydroxybenzoate (EDHB), a weakly chelating ester, was measured as a decrease in absorbance at 500 nm. […] In addition, the inventors utilized the Connectivity Map to look for similarities between the induced gene expression signatures of low and high dose DFO and compound treated cells (Lamb et al., 2006). Using this bioinformatic approach, the inventors discovered no significant similarity between the gene expression profile of the compounds and low (chelating) DFO dose, while there was a negative correlation between compound effect and high (HIF stabilizing) DFO dose (see FIG. 13).
# NFkB = assay: TransAM NFkB ELISA; assay type: cell-based, human; conditions: 786-O cells, 5uM, 24 hours
# Protocol: Experiments were performed in triplicate. Error bars represent Standard Error of the Mean (SEM).
# [4] = system: HIF-2a (HRE-luciferase, 7H4 cells); assay: HRE-luciferase reporter assay in 786-O derived 7H4 cells; assay type: cell-based, human; conditions: 786-O cells, 24 hours
# Protocol: The screen for small molecule inhibitors was performed in the Institute for Chemical and Cellular biology, Harvard Medical School. 7SV or 7H4 cells were plated onto 384-well plates. The next day compounds were added robotically to the medium, to a final concentration of approximately 10 μM. 24 hours later, media was aspirated and Passive Lysis Buffer (Promega) and Luciferase Assay Reagent II (Promega) were added. Luciferase activity was measured with an Analyst plate reader (LJL Biosystems). All experiments were performed in duplicate and the identity of lead compounds was confirmed by mass spectroscopy
# Luciferase assays were performed using the Promega's Dual-luciferase Assay Reporter System (Promega, E1910) according to the manufacturer's instructions. Counts obtained from transient transfections were normalized for co-transfected Renilla luciferase. Stable clones were normalized to medium only treated wells.
# Functionally validated HRE and control SV40 luciferase reporter constructs were stably introduced into VHL-deficient 786-O cells to generate 7H4 and 7SV lines, respectively (see FIG. 8A). These lines were used to screen five commercial small molecule libraries (NCI Diversity Set, Chembridge, Maybridge, CEREP and Peakdale) and the ICCB Diversity-Oriented Synthesis (DOS) Diversity Set 2 (DDS2) and serine-derived peptidomimetic (SDP1) collections, totaling 58,000 compounds.
# 786-O cells were untreated (M, for medium only), mock-treated (D, for DMSO) or treated with compounds for two days before assaying for normalized luciferase activity. The resulting dose response curves are shown along with the compound structures in FIGS. 1A-1H).
# To validate the connectivity map-derived prediction that PGJ2 is involved in HIF signaling, the inventors treated HRE-luciferase expressing 786-O cells (7H4) and SV40-luciferase expressing control cells (7SV) with increasing doses of PGJ2.
Compound,Mechanism of HIF inhibtion (HIF),Biological Activities (HIF),other results
CC(C)(c1ccc(O)cc1)c1ccc(O)cc1 [Bisphenol],HIF degradation,–,–
"CC(=O)N(O)CCCCCNC(=O)CCC(=O)N(O)CCCCCNC(=O)CCC(=O)N(O)CCCCCN [DFO, reference compound]",–,–,HIF-2a IRE luciferase reporter activity [1]: repressed reporter activity and diminished the effect of hypoxia; binding of IRP2 to Ferritin-L IRE [2]: slightly enhanced; displacement of iron from EDHB complex (iron chelation) [3]: readily displaced iron from EDHB
COc1cc([C@@H]2c3cc4c(cc3[C@@H](Nc3ccc([N+](=O)[O-])cc3)[C@H]3COC(=O)[C@H]23)OCO4)cc(OC)c1O [GL331],Protein levels,Inhibits HUVEC,–
COc1cc2c(cc1O)CC[C@@H]1[C@@H]2CC[C@]2(C)[C@@H](O)CC[C@@H]12 [Compound 2-ME2],Post-transcriptional,Inhibits HUVEC,–
"O=C(O)CN(CCN(CC(=O)O)CC(=O)O)CC(=O)O [EDTA, reference compound]",–,–,displacement of iron from EDHB complex (iron chelation) [3]: readily displaced iron from EDHB
CCC(C)SSc1ncc[nH]1 (stereo not drawn) [PX-12],–,Tumor suppression,–
OCc1ccc(-c2nn(Cc3ccccc3)c3ccccc23)o1 [YC-1],HIF protein levels,VEGF decrease/tumor,–
COc1ccc2cc3[n+](cc2c1OC)CCc1cc2c(cc1-3)OCO2 [Berberine],HIF degradation,–,–
"Cc1ccc2nc(NCCN)c3ncc(C)n3c2c1 [BMS-345541, reference compound]",–,–,basal NFkB activity (NFkB): basal NFkB activity is suppressed; HRE-luciferase activity [4]: did not alter the HRE-luciferase activity
